In PubChem BioAssay (NCI):
“And” between values parts separate entries of the source, which are not always exact repeats. Equal values may be shown once.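 In this assay, cells in 96-well plates receive the compound at five concentrations for 48 hours. Endpoints are linearly interpolated between the surrounding concentrations. The concentration for 50% growth inhibition is given as GI50. The concentration for full growth arrest is given as TGI.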

What was measured:
Assay in all cases: NCI tumour cell line growth inhibition, 48 h
MCF7 breast = tested on: MCF7 breast
OVCAR-4 ovarian = tested on: OVCAR-4 ovarian
NCI-H23 lung = tested on: NCI-H23 lung
A549 NSCLC = tested on: A549 NSCLC
KM12 colon = tested on: KM12 colon
NCI-H226 lung = tested on: NCI-H226 lung
SK-MEL-28 melanoma = tested on: SK-MEL-28 melanoma
ACHN renal = tested on: ACHN renal
DU-145 prostate = tested on: DU-145 prostate
UO-31 renal = tested on: UO-31 renal

SMILES	GI50 (MCF7 breast)	TGI (MCF7 breast)	GI50 (OVCAR-4 ovarian) [µM]	TGI (OVCAR-4 ovarian)	GI50 (NCI-H23 lung)	TGI (NCI-H23 lung)	GI50 (A549 NSCLC)	TGI (A549 NSCLC)	GI50 (KM12 colon)	TGI (KM12 colon)	GI50 (NCI-H226 lung)	TGI (NCI-H226 lung)	GI50 (SK-MEL-28 melanoma) [µM]	TGI (SK-MEL-28 melanoma)	GI50 (ACHN renal) [µM]	TGI (ACHN renal) [µM]	GI50 (DU-145 prostate)	TGI (DU-145 prostate) [µM]	GI50 (UO-31 renal) [µM]	TGI (UO-31 renal)
CCOC(=O)CCC(NC(=O)c1ccc(Nc2nc3cc(N)cc(N)c3nc2-c2ccccc2)cc1)C(=O)OCC (configuration not stated)	34.8 µM	> 100 µM	44.5	> 100 µM	30.8 µM	> 74.5 µM	27.8 µM	> 100 µM	> 52.9 µM	> 100 µM	> 51.6 µM	> 74.1 µM	5.76	13.3 µM	> 35.9	> 68.6	65.8 µM	> 100	> 46.6	> 87.1 µM
C=C1C(=O)O[C@H]2[C@H]1CC/C(COC(=O)c1ccc(Br)cc1)=C\CC[C@@]1(C)O[C@@H]21	0.645 µM	2.97 µM	1.57	3.68 µM	1.6 µM	3.41 µM	1.96 µM	4.56 µM	1.8 µM	3.66 µM	2.06 µM	4.57 µM	1.7	3.39 µM	1.45	2.76	1.35 µM	2.65	1.29	2.56 µM
CCCCOc1nc2ccccc2cc1C1CNC(=O)c2ccccc2N1 (configuration not stated)	2.23 µM	15.4 µM	4.77	24.8 µM	5.19 µM	35.1 µM	4.25 µM	15.9 µM	3.31 µM	72.5 µM	4.82 µM	19.2 µM	4.82	23.6 µM	4.31	17.8	3.19 µM	12	2.83	20 µM
COc1ccc(C2C3=C(COC3=O)N(CCO)c3cc4c(cc32)CCC4)cc1OC (configuration not stated)	0.176 µM	> 50 µM	0.901	> 50 µM	1.36 µM	> 50 µM	1.13 µM	> 50 µM	0.297 µM	> 50 µM	> 10.7 µM	> 50 µM	0.697	> 50 µM	4.32	> 50	0.574 µM	2.13	1.13	> 50 µM
O=C(c1nc2ccccc2[nH]1)C1C(c2cccc([N+](=O)[O-])c2)C2CC3CCCCC3N2[C@@]12C(=O)Nc1cc(Cl)ccc12 (some centres not stated)	1.95 µM	7.11 µM	2.08	8.87 µM	2.37 µM	5.89 µM	2.34 µM	6.88 µM	1.63 µM	3.5 µM	1.59 µM	3.48 µM	1.81	3.7 µM	2.23	7.2	1.55 µM	3.26	1.38	3.16 µM
NC(=S)c1cn(C2OC(CO)C(O)C2O)c2ncnc(N)c12 (configuration not stated)	0.0673 µM	0.303 µM	0.081	4.21 µM	0.139 µM	0.677 µM	0.266 µM	> 100 µM	0.0262 µM	0.205 µM	0.602 µM	> 21.1 µM	0.112	0.483 µM	0.229	–	0.217 µM	5.44	0.275	1.68 µM
CCn1c(-c2nonc2N)nc2c(C#CC(C)(C)O)ncc(OCC3CCNCC3)c21	6.19 µM	> 25 µM	> 25	> 25 µM	> 19.2 µM	> 25 µM	10.7 µM	> 25 µM	7.58 µM	> 25 µM	> 15.2 µM	> 25 µM	10	> 25 µM	8.13	> 25	8.15 µM	> 25	6.42	18.5 µM
O=C(Nc1ccc(Oc2cccc(Cl)c2)c(Cl)c1)c1cccnc1	0.597 µM	> 50 µM	14.5	> 50 µM	3.3 µM	> 50 µM	2.08 µM	> 50 µM	0.782 µM	12 µM	2.16 µM	32 µM	7.2	> 50 µM	4.06	> 50	2.15 µM	36	3.63	30 µM
O=C(N/N=C\c1cc(Br)cc(Br)c1O)N/N=C/c1cc(Br)cc(Br)c1O	2.89 µM	12.3 µM	2.5	12.9 µM	6.21 µM	23.5 µM	3.74 µM	14.6 µM	2.9 µM	11.7 µM	2.23 µM	9.82 µM	2.79	16.1 µM	4.06	13.5	4.63 µM	15.5	1.8	8.7 µM
COC(=O)CCCCCCCCC(=O)c1c(C)[nH]c(/C=C2\N=C(c3ccc[nH]3)C=C2OC)c1C	64.4 µM	> 100 µM	> 85.9	> 100 µM	> 100 µM	> 100 µM	5.18 µM	> 50.2 µM	> 69.9 µM	> 100 µM	8.72 µM	> 100 µM	14.9	> 100 µM	20.6	> 72.7	32.1 µM	> 100	30.5	> 73.6 µM
COc1ccc2c(c1)/C(=N/OC(C)=O)c1c-2c(Nc2ccc(/C(C)=N/OC(C)=O)cc2)nc2ccccc12	53 µM	> 100 µM	20.8	45.1 µM	35.5 µM	> 100 µM	59.6 µM	> 100 µM	43.5 µM	> 100 µM	> 100 µM	> 100 µM	44.5	> 100 µM	56.6	> 100	43.2 µM	> 100	72.8	> 100 µM
O=[N+]([O-])C1(CO)COC2(OC1)c1ccccc1-c1ccccc12	–	> 95.3 µM	–	> 100 µM	–	> 100 µM	–	> 100 µM	–	> 100 µM	–	> 100 µM	–	> 100 µM	–	> 100	–	> 100	–	> 100 µM
CN(C)CC1CCCCCCCCCCC1=O (configuration not stated)	> 100 µM	> 100 µM	> 100	> 100 µM	> 100 µM	> 100 µM	> 100 µM	> 100 µM	> 10 µM and 78.3 µM	> 100 µM	> 100 µM	> 100 µM	–	> 100 µM	> 100	> 100	> 100 µM	> 100	> 100	> 100 µM
Fc1ccc(-c2ncn(C3CCNCC3)c2-c2ccnc(Oc3ccc(Oc4ccccc4)cc3)n2)cc1	3.23 µM	6.9 µM	3.78	7.27 µM	4.08 µM	7.9 µM	4.09 µM	7.84 µM	4.16 µM	7.8 µM	3.6 µM	7.53 µM	4.27	7.82 µM	3.77	7.19	4.2 µM	7.75	2.96	6.29 µM
Nc1cc2ccncc2c2ccccc12	19.1 µM	> 100 µM	20.2	> 100 µM	16.7 µM	80.1 µM	18.9 µM	> 100 µM	11.6 µM	> 100 µM	5.75 µM	73.6 µM	16.6	33.6 µM	4.44	58.5	13.2 µM	> 100	4.1	45.6 µM
Cn1ccnc1C(=O)/C=C/c1ccc(CC(=O)Nc2cc(F)c(F)c(F)c2)cc1	1.36 µM	6.82 µM	2.25	> 25 µM	2.08 µM	9.53 µM	1.57 µM	20.2 µM	1.58 µM	5.51 µM	3.4 µM	12.3 µM	3.64	7.69 µM	4.53	19.2	1.67 µM	4.87	1.7	4.96 µM
CO[C@H]1/C=C/C=C/C=C/C[C@H](OC(=O)[C@@H](C)NC(=O)C2CCCCC2)[C@H](C)[C@@H](O)/C(C)=C\CCC2=CC(=O)C=C(NC(=O)C1)C2=O	0.13 µM	3.54 µM	0.225	2.84 µM	0.115 µM	0.812 µM	0.188 µM	1.92 µM	0.131 µM	10.1 µM	0.157 µM	0.797 µM	0.102	0.49 µM	0.223	1.31	0.127 µM	1.4	0.352	2.79 µM
NS(=O)(=O)c1ccc(N=Nc2cc3ccccc3c(C(=O)O)c2O)cc1	–	> 84.7 µM	–	> 80.9 µM	–	> 100 µM	–	> 100 µM	–	> 100 µM	–	> 100 µM	–	> 100 µM	–	52.5	–	> 100	–	99 µM
Nc1ccc(Sc2ccc3c4c2cccc4c(=O)n2c4ccccc4nc32)cc1	2.71 µM	35.3 µM	6.93	28.8 µM	5.03 µM	> 100 µM	2.17 µM	12.9 µM	6.63 µM	58.6 µM	2.43 µM	11.3 µM	12.8	35.3 µM	2.37	10.2	3.8 µM	14.1	2.43	18.7 µM
C=C(C)[C@@H]1CC[C@@H]2C(=CC[C@]3(C)C([C@H](C)CC/C=C(/C)C(=O)O)CC[C@@]23C)[C@@]1(C)CCC(=O)O (some centres not stated)	–	> 100 µM	–	> 100 µM	–	57.2 µM	–	> 100 µM	–	48.7 µM	–	83.1 µM	–	98.9 µM	–	36.7	–	60.5	–	30.7 µM
COc1cc(C2CC(c3cc(Cl)c(C)cc3O)=NN2c2ccc(S(N)(=O)=O)cc2)cc(OC)c1OC (configuration not stated)	2.77 µM	10.3 µM	3.47	> 100 µM	2.11 µM	5.32 µM	4 µM	15.5 µM	2.28 µM	5.1 µM	3.73 µM	13.3 µM	3	7.86 µM	2.78	8.33	3.4 µM	11.2	2.19	28.9 µM
CCN(CC)c1ccc(/C=C2/NC(=O)NC2=O)cc1	2.84 µM	> 100 µM	22.6	> 100 µM	7.97 µM	> 100 µM	9.9 µM	> 100 µM	1.65 µM	> 24.2 µM	> 95.2 µM	> 100 µM	15.9	> 100 µM	26.5	> 100	5.7 µM	32.6	–	> 100 µM
COC(=O)C12CC(NC(=O)c3csc([C@@H](C[C@H](C(C)C)N(C)C(=O)[C@@H](NC(=O)[C@H]4CCCCN4C)C(C)C)OC(C)=O)n3)(C1)C2	0.000598 µM and 0.00333 µM	> 33.3 µM	–	> 33.3 µM	0.0104 µM and 0.00333 µM	> 33.3 µM	0.0163 µM and 0.00413 µM	> 33.3 µM	0.00507 µM and 0.00333 µM	> 33.3 µM	0.0181 µM and 0.0227 µM	–	> 33.3	> 33.3 µM	0.0174	> 33.3	0.00165 µM and 0.00333 µM	> 33.3	0.0462	–
CC[C@@]1(O)C(=O)N(CCN(C)C)Cc2c1cc1n(c2=O)Cc2cc3ccccc3nc2-1	14.9 µM	> 100 µM	58.1	> 100 µM	8.35 µM	> 100 µM	26 µM	> 100 µM	12.5 µM	> 54.1 µM	64.3 µM	> 100 µM	34.7	> 92.8 µM	4.31	> 100	4.64 µM	> 100	9.41	> 100 µM
CCCCCCCC(=O)O[C@H]1[C@H]2[C@@H](CC1(C)C)C(=O)[C@]13O[C@H]1C(=O)[C@]1(CO1)[C@]23C	4.99 µM	19.4 µM and 10.5 µM	2.83	9.2 µM and 9.85 µM	12.5 µM	28.4 µM and 8.51 µM	22.5 µM	38.2 µM and 63.6 µM	19 µM	40.3 µM and 21.5 µM	20.2 µM	26.8 µM and 48.9 µM	5.87	12.7 µM and 6.55 µM	–	4.09	–	27.9	5.73	12.9 µM and 28.2 µM
